Measured values as given in ChEMBL document CHEMBL3399965, “Application of cultured human mast cells (CHMC) for the design and structure-activity relationship of IgE-mediated mast cell activation inhibitors” (Bioorg Med Chem Lett, 2015).
pEC50: −log10 of the molar value. Active and inactive are the calls of the source. The calls are words filed in the database; no cut-off is given here.

Assays:
[1] = biological target: T1, Tyrosine-protein kinase SYK (Homo sapiens, UniProt P43405); assay: Inhibition of SYK in human mast cell cultures assessed as reduction in IgE-induced FCepsilonR1 mediated degranulation by tryptase release assay
[2] = biological target: T1, Tyrosine-protein kinase SYK; assay: Inhibition of SYK in human mast cell cultures assessed as reduction in ionomycin-induced calcium mobilization mediated degranulation by tryptase release assay

Row | inhibition [1] | inhibition [2] | pEC50 [1] | pEC50 [2] | SMILES
1 | inactive | inactive | – | – | NC(=O)COc1ccc(Nc2ncc(F)c(Nc3ccc(OCC(N)=O)cc3)n2)cc1
2 | – | inactive | 5.47 | – | Oc1ccc(Nc2ncc(F)c(Nc3ccc(O)cc3)n2)cc1
3 | – | inactive | 5.29 | – | Fc1cnc(Nc2cccc(OC(F)(F)F)c2)nc1Nc1cccc(OC(F)(F)F)c1
4 | – | inactive | – | – | CNC(=O)CNc1cccc(Nc2ncc(F)c(Nc3cccc(O)c3)n2)c1
5 | – | inactive | 6.02 | – | N#Cc1cccc(Nc2ncc(F)c(Nc3cccc(C#N)c3)n2)c1
6 | – | inactive | 5.37 | – | Nc1ccc(Nc2ncc(F)c(Nc3ccc(N)cc3)n2)cc1
7 | – | inactive | 5.76 | – | COc1cccc(Nc2ncc(F)c(Nc3cccc(OC)c3)n2)c1
8 | – | inactive | 5.51 | – | CCOc1cccc(Nc2ncc(F)c(Nc3cccc(OCC)c3)n2)c1
9 | – | inactive | 6.64 | – | Oc1cccc(Nc2ncc(Br)c(Nc3cccc(O)c3)n2)c1
10 | – | inactive | 6.55 | – | CC(C)(CO)c1ccc(Nc2nc(Nc3cccc(OCCO)c3)ncc2F)cc1
11 | – | inactive | 6.68 | – | CNC(=O)COc1cccc(Nc2ncc(F)c(Nc3ccc(C(F)(F)F)cc3)n2)c1
12 | – | inactive | – | – | Oc1cccc(Nc2ncc(F)c(Nc3cccc(O)c3)n2)c1
13 | – | inactive | 5.84 | – | COc1ccc(Nc2ncc(F)c(Nc3ccc(OC)cc3)n2)cc1
14 | – | inactive | 5.38 | – | Fc1cnc(Nc2ccc(N3CCOCC3)cc2)nc1Nc1ccc(N2CCOCC2)cc1
15 | – | inactive | 6.12 | – | Cn1nnnc1COc1ccc(Nc2ncc(F)c(Nc3ccc(OCc4nnnn4C)cc3)n2)cc1
16 | – | inactive | 6.57 | – | Oc1cccc(Nc2ncc(C(F)(F)F)c(Nc3cccc(O)c3)n2)c1
17 | – | inactive | 5.96 | – | CCOc1ccc(Nc2nc(Nc3cccc(OCC(=O)NC)c3)ncc2F)cc1
18 | – | – | 6.37 | 5.61 | COC(=O)COc1ccc(Nc2ncc(F)c(Nc3ccc(OCC(N)=O)cc3)n2)cc1
19 | – | – | 6.03 | 5.00 | COC(=O)COc1ccc(Nc2nc(Nc3ccc(OCC(N)=O)cc3)ncc2F)cc1
20 | – | inactive | 5.54 | – | Oc1cccc(Nc2ncc(-c3ccccc3)c(Nc3cccc(O)c3)n2)c1
21 | – | inactive | 6.05 | – | Cc1cnc(Nc2cccc(O)c2)nc1Nc1cccc(O)c1
22 | – | – | 6.28 | 5.00 | NC(=O)COc1ccc(Nc2ncc(F)c(Nc3cccc(O)c3)n2)cc1
23 | – | – | 6.42 | 5.77 | COC(=O)COc1ccc(Nc2ncc(F)c(Nc3ccc(OCC(=O)OC)cc3)n2)cc1
24 | inactive | inactive | – | – | Fc1cnc(Nc2ccc(C(F)(F)F)cc2)nc1Nc1ccc(C(F)(F)F)cc1

Row | inhibition [1] | inhibition [2] | pEC50 [1] | pEC50 [2] | SMILES
25 | – | inactive | 6.03 | – | OCCOc1cccc(Nc2ncc(F)c(Nc3cccc(OCCO)c3)n2)c1
26 | – | – | 5.81 | 5.00 | NC(=O)COc1ccc(Nc2nc(Nc3cccc(O)c3)ncc2F)cc1
27 | – | – | – | 5.00 | N#CCOc1ccc(Nc2ncc(F)c(Nc3cccc(O)c3)n2)cc1
28 | – | inactive | 6.43 | – | N#CCOc1ccc(Nc2ncc(F)c(Nc3ccc(OCC#N)cc3)n2)cc1
29 | – | inactive | 6.36 | – | N#Cc1cnc(Nc2cccc(O)c2)nc1Nc1cccc(O)c1
30 | – | inactive | 5.66 | – | CC(C)Oc1ccc(Nc2ncc(F)c(Nc3ccc(OC(C)C)cc3)n2)cc1
31 | inactive | inactive | – | – | CCOc1ccc(Nc2ncc(C)c(Nc3ccc(OCC)cc3)n2)cc1
32 | – | inactive | 5.24 | – | Oc1cccc(Nc2cc(-c3ccccc3)nc(Nc3cccc(O)c3)n2)c1
33 | – | inactive | 5.55 | – | OCc1cccc(Nc2ncc(F)c(Nc3cccc(CO)c3)n2)c1
34 | – | inactive | 5.01 | – | N#Cc1ccc(Nc2ncc(F)c(Nc3ccc(C#N)cc3)n2)cc1
35 | – | inactive | – | – | CCOc1ccc(Nc2ncc(F)c(Nc3ccc(OCC)cc3)n2)cc1
36 | – | inactive | 5.47 | – | CCOc1ccc(Nc2ccnc(Nc3ccc(OCC)cc3)n2)cc1
37 | – | inactive | 6.17 | – | OCCOc1cccc(Nc2nc(Nc3cccc(O)c3)ncc2F)c1
38 | inactive | inactive | – | – | CCOc1ccc(Nc2cc(Cl)nc(Nc3ccc(OCC)cc3)n2)cc1
39 | – | inactive | 5.24 | – | Fc1cnc(Nc2cccc(Cl)c2)nc1Nc1cccc(Cl)c1
40 | – | inactive | 5.38 | – | COCCOc1cccc(Nc2ncc(F)c(Nc3cccc(OCCOC)c3)n2)c1
41 | – | inactive | 6.30 | – | Oc1cccc(Nc2ccnc(Nc3cccc(O)c3)n2)c1
42 | – | inactive | 6.40 | – | CNC(=O)COc1cccc(Nc2ncc(F)c(Nc3ccc(OC(F)(F)F)cc3)n2)c1
43 | inactive | inactive | – | – | O=C(O)COc1ccc(Nc2ncc(F)c(Nc3ccc(OCC(=O)O)cc3)n2)cc1
44 | – | inactive | 5.89 | – | CNC(=O)COc1cccc(Nc2ncc(F)c(Nc3ccc(N4CCOCC4)cc3)n2)c1
45 | – | inactive | 6.48 | – | CCOC(=O)CNc1cccc(Nc2ncc(F)c(Nc3cccc(O)c3)n2)c1
46 | – | – | 6.37 | 5.00 | CNC(=O)COc1cccc(Nc2ncc(F)c(Nc3ccc(C(C)(C)C)cc3)n2)c1
47 | inactive | inactive | – | – | Fc1cnc(Nc2ccc(OCc3nnn[nH]3)cc2)nc1Nc1ccc(OCc2nnn[nH]2)cc1
